Measurements from ChEMBL document CHEMBL6083246 (Bioorg Med Chem, 2024).
Activity calls are given as the source filed them. The calls are words filed in the database; no cut-off is given here.

Legend:
RAW264.7 [1] = experiment: Cytotoxicity against mouse RAW264.7 cells assessed as reduction in cell viability at < 640 uM incubated for 24 hrs by CCK8 assay; assay type: toxicity, cell-based; settings: raw264.7, 24 h
RAW264.7 [2] = experiment: Cytotoxicity against mouse RAW264.7 cells assessed as reduction in cell viability at 1080 uM incubated for 24 hrs by CCK8 assay; assay type: toxicity, cell-based; settings: raw264.7, 24 h
RAW264.7 [3] = experiment: Antiinflammatory activity in LPS induced mouse RAW264.7 cells assessed as reduction in NO production incubated for 24 hrs by Griess reagent based assay; assay type: functional, cell-based
RAW264.7 [4] = experiment: Antiinflammatory activity in LPS induced mouse RAW264.7 cells assessed as reduction in TNFalpha production at 50 uM incubated for 24 hrs by ELISA; assay type: functional, cell-based
RAW264.7 [5] = experiment: Antiinflammatory activity in LPS induced mouse RAW264.7 cells reduction in ROS production incubated for 24 hrs by DCFH-DA staining based microplate reader analysis; assay type: functional, cell-based
[6] = target: Aldo-keto reductase family 1 member B1 (Mus musculus) (UniProt P45376); experiment: Induction of thermal stabilization of AKR1B1 in mouse RAW264.7 cells at 50 uM at 45 to 75 degreeC incubated for 2 hrs by cellular thermal shift assay; assay type: cell-based
RAW264.7 [7] = experiment: Antiinflammatory activity in LPS induced mouse RAW264.7 cells assessed as reduction in IL-6 production at 50 uM incubated for 24 hrs by ELISA; assay type: functional, cell-based
RAW264.7 [8] = experiment: Antiinflammatory activity in LPS induced mouse RAW264.7 cells assessed as reduction in NO production at 50 uM incubated for 24 hrs by Griess reagent based assay; assay type: functional, cell-based
RAW264.7 [9] = experiment: Antiinflammatory activity in LPS induced mouse RAW264.7 cells reduction in ROS production at 50 uM incubated for 24 hrs by DCFH-DA staining based microplate reader analysis; assay type: functional, cell-based

Question: `O=C(/C=C/c1ccc(O)c(O)c1)O[C@H]1[C@H](O)C[C@](O)(C(=O)O)C[C@H]1O` was tested. Which Activity (RAW264.7 [1]) did it give?
Answer: The Activity was “Non-toxic”.

Question: What about the Activity (RAW264.7 [2]) of the same compound?
Answer: Its Activity is “Toxic”.

Question: And the Activity (RAW264.7 [3])?
Answer: The Activity was “Dose-dependent-effect”.

Question: What about the Activity (RAW264.7 [4]) of the same compound?
Answer: Its Activity is “Active; Showed Higher Activity Compared To 5-Cqa”.

Question: What about the Activity (RAW264.7 [5]) of the same compound?
Answer: Its Activity is “Dose-dependent-effect”.

Question: And the Activity [6]?
Answer: The Activity was “Active”.

Question: How did the Activity (RAW264.7 [4]) turn out when `CC(/C=C1\SC(=S)N(CC(=O)O)C1=O)=C\c1ccccc1` was run?
Answer: Its Activity is “Active”.

Question: What about the Activity (RAW264.7 [7]) of the same compound?
Answer: Its Activity is “Active”.

Question: `O=C(/C=C/c1ccc(O)c(O)c1)O[C@@H]1C[C@@](O)(C(=O)O)C[C@@H](O)[C@@H]1O` was tested. Which Activity (RAW264.7 [1]) did it give?
Answer: The Activity was “Non-toxic”.

Question: And the Activity (RAW264.7 [2])?
Answer: Its Activity is “Toxic”.

Question: And the Activity (RAW264.7 [3])?
Answer: The Activity was “Dose-dependent-effect”.

Question: And the Activity (RAW264.7 [5])?
Answer: Its Activity is “Dose-dependent-effect”.

Question: And the Activity [6]?
Answer: The Activity was “Active”.

Question: For `O=C(/C=C/c1ccc(O)c(O)c1)O[C@@H]1C[C@](O)(C(=O)O)C[C@@H](O)[C@H]1O` [CHLOROGENIC ACID], which Activity (RAW264.7 [1]) is on record?
Answer: Its Activity is “Non-toxic”.

Question: And the Activity (RAW264.7 [2])?
Answer: The Activity was “Toxic”.

Question: And the Activity (RAW264.7 [3])?
Answer: Its Activity is “Dose-dependent-effect”.

Question: What about the Activity (RAW264.7 [8]) of the same compound?
Answer: The Activity was “Active; Showed Higher Activity Compared To 4-Cqa And 5-Cqa”.

Question: And the Activity (RAW264.7 [4])?
Answer: Its Activity is “Active; Showed Higher Activity Compared To 4-Cqa And 5-Cqa”.

Question: What about the Activity (RAW264.7 [7]) of the same compound?
Answer: The Activity was “Active; Showed Higher Activity Compared To 4-Cqa And 5-Cqa”.

Question: What about the Activity (RAW264.7 [5]) of the same compound?
Answer: Its Activity is “Dose-dependent-effect”.

Question: What about the Activity (RAW264.7 [9]) of the same compound?
Answer: Its Activity is “Active”.

Question: And the Activity [6]?
Answer: The Activity was “Active”.
